Reference: patent publication US20230085307A1, “PYRIDAZINONE COMPOUND AND HERBICIDE” (NISSAN CHEMICAL CORPORATION, priority 2019, published 2023)

Columns and labels:
[1] = test system: velvetleaf; test: Test Example 5: herbicidal effect by foliage application, plastic box (Table 20, symbol M); type: in vivo, velvetleaf (Abutilon theophrasti); settings: 320 g/ha, foliage application after 14-day growth, evaluated three weeks after application
In short: (§1)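 Plants were sown into sterilized diluvial soil under about 1.5 cm cover and kept in a greenhouse at 25° C. to 30° C. Fourteen days on, foliage received an even spray of the diluted emulsion. Herbicidal or crop effect was judged three weeks afterwards.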

[2] = test system: Italian ryegrass; test: Test Example 5: herbicidal effect by foliage application, plastic box (Table 20, symbol K); type: in vivo, Italian ryegrass (Lolium multiflorum); settings: 320 g/ha, foliage application after 14-day growth, evaluated three weeks after application
In short: as §1

[3] = test system: Italian ryegrass; test: Test Example 4: herbicidal effect by soil treatment (Table 19, symbol K); type: in vivo, Italian ryegrass (Lolium multiflorum); settings: amount of applied herbicide 320 g/ha
In short: (§2)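 Pre-emergence style soil spray: seeds under ~1.5 cm sterilized diluvial soil received a uniform coat of emulsion diluted to the predetermined herbicide amount. Greenhouse 25–30° C; readout at week three on previously defined criteria.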

[4] = test system: barnyard grass; test: Test Example 4: herbicidal effect by soil treatment (Table 19, symbol H); type: in vivo, barnyard grass (Echinochloa crus-galli); settings: amount of applied herbicide 320 g/ha
In short: as §2

[5] = test system: lambsquarters; test: Test Example 5: herbicidal effect by foliage application, plastic box (Table 20, symbol O); type: in vivo, lambsquarters (Chenopodium album); settings: 320 g/ha, foliage application after 14-day growth, evaluated three weeks after application
In short: as §1

[6] = test system: redroot pigweed; test: Test Example 5: herbicidal effect by foliage application, plastic box (Table 20, symbol N); type: in vivo, redroot pigweed (Amaranthus retroflexus); settings: 320 g/ha, foliage application after 14-day growth, evaluated three weeks after application
In short: as §1

[7] = test system: persian speedwell; test: Test Example 4: herbicidal effect by soil treatment (Table 19, symbol R); type: in vivo, Persian speedwell (Veronica persica); settings: amount of applied herbicide 320 g/ha
In short: as §2

[8] = test system: chickweed; test: Test Example 4: herbicidal effect by soil treatment (Table 19, symbol P); type: in vivo, common chickweed (Stellaria media); settings: amount of applied herbicide 320 g/ha
In short: as §2

[9] = test system: wild oat; test: Test Example 4: herbicidal effect by soil treatment (Table 19, symbol I); type: in vivo, wild oat (Avena fatua); settings: amount of applied herbicide 320 g/ha
In short: as §2

[10] = test system: blackgrass; test: Test Example 5: herbicidal effect by foliage application, plastic box (Table 20, symbol J); type: in vivo, blackgrass (Alopecurus myosuroides); settings: 320 g/ha, foliage application after 14-day growth, evaluated three weeks after application
In short: as §1

[11] = test system: barnyard grass; test: Test Example 5: herbicidal effect by foliage application, plastic box (Table 20, symbol H); type: in vivo, barnyard grass (Echinochloa crus-galli); settings: 320 g/ha, foliage application after 14-day growth, evaluated three weeks after application
In short: as §1

[12] = test system: wild oat; test: Test Example 5: herbicidal effect by foliage application, plastic box (Table 20, symbol I); type: in vivo, wild oat (Avena fatua); settings: 320 g/ha, foliage application after 14-day growth, evaluated three weeks after application
In short: as §1

[13] = test system: Chinese sprangletop; test: Test Example 3: herbicidal effect by foliage application, Wagner pot (Table 18, symbol D); type: in vivo, chinese sprangletop (Leptochloa chinensis); settings: 320 g/ha
In short: (§3)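 Plants were sown in alluvial soil held under 0.1–0.5 cm standing water and grown 14 days in a greenhouse at 25–30 °C. An emulsifiable formulation, water-diluted to the set dose, was then sprayed onto the foliage, and effects were scored three weeks later using previously defined criteria.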

[14] = test system: southern crabgrass; test: Test Example 4: herbicidal effect by soil treatment (Table 19, symbol F); type: in vivo, southern crabgrass (Digitaria ciliaris); settings: amount of applied herbicide 320 g/ha
In short: as §2

[15] = test system: southern crabgrass; test: Test Example 5: herbicidal effect by foliage application, plastic box (Table 20, symbol F); type: in vivo, southern crabgrass (Digitaria ciliaris); settings: 320 g/ha, foliage application after 14-day growth, evaluated three weeks after application
In short: as §1

[16] = test system: persian speedwell; test: Test Example 5: herbicidal effect by foliage application, plastic box (Table 20, symbol R); type: in vivo, Persian speedwell (Veronica persica); settings: 320 g/ha, foliage application after 14-day growth, evaluated three weeks after application
In short: as §1

[17] = test system: green foxtail; test: Test Example 4: herbicidal effect by soil treatment (Table 19, symbol G); type: in vivo, green foxtail (Setaria viridis); settings: amount of applied herbicide 320 g/ha
In short: as §2

[18] = test system: chickweed; test: Test Example 5: herbicidal effect by foliage application, plastic box (Table 20, symbol P); type: in vivo, common chickweed (Stellaria media); settings: 320 g/ha, foliage application after 14-day growth, evaluated three weeks after application
In short: as §1

[19] = test system: velvetleaf; test: Test Example 4: herbicidal effect by soil treatment (Table 19, symbol M); type: in vivo, velvetleaf (Abutilon theophrasti); settings: amount of applied herbicide 320 g/ha
In short: as §2

[20] = test system: blackgrass; test: Test Example 4: herbicidal effect by soil treatment (Table 19, symbol J); type: in vivo, blackgrass (Alopecurus myosuroides); settings: amount of applied herbicide 320 g/ha
In short: as §2

[21] = test system: windgrass; test: Test Example 4: herbicidal effect by soil treatment (Table 19, symbol L); type: in vivo, windgrass (Apera spica-venti); settings: amount of applied herbicide 320 g/ha
In short: as §2

[22] = test system: green foxtail; test: Test Example 5: herbicidal effect by foliage application, plastic box (Table 20, symbol G); type: in vivo, green foxtail (Setaria viridis); settings: 320 g/ha, foliage application after 14-day growth, evaluated three weeks after application
In short: as §1

[23] = test system: redroot pigweed; test: Test Example 4: herbicidal effect by soil treatment (Table 19, symbol N); type: in vivo, redroot pigweed (Amaranthus retroflexus); settings: amount of applied herbicide 320 g/ha
In short: as §2

[24] = test system: rice flat sedge; test: Test Example 3: herbicidal effect by foliage application, Wagner pot (Table 18, symbol E); type: in vivo, rice flat sedge (Cyperus iria); settings: 320 g/ha
In short: as §3

[25] = test system: barnyard grass; test: Test Example 3: herbicidal effect by foliage application, Wagner pot (Table 18, symbol H); type: in vivo, barnyard grass (Echinochloa crus-galli); settings: 320 g/ha
In short: as §3

[26] = test system: windgrass; test: Test Example 5: herbicidal effect by foliage application, plastic box (Table 20, symbol L); type: in vivo, windgrass (Apera spica-venti); settings: 320 g/ha, foliage application after 14-day growth, evaluated three weeks after application
In short: as §1

[27] = test system: lambsquarters; test: Test Example 4: herbicidal effect by soil treatment (Table 19, symbol O); type: in vivo, lambsquarters (Chenopodium album); settings: amount of applied herbicide 320 g/ha
In short: as §2

SMILES	herbicidal effect on M: velvetleaf (evaluation grade 0-5) [1]	herbicidal effect on K: Italian ryegrass (evaluation grade 0-5) [2]	Herbicidal effect by soil treatment, K: Italian ryegrass [3]	Herbicidal effect by soil treatment, H: barnyard grass [4]	herbicidal effect on O: lambsquarters (evaluation grade 0-5) [5]	herbicidal effect on N: redroot pigweed (evaluation grade 0-5) [6]	Herbicidal effect by soil treatment, R: persian speedwell [7]	Herbicidal effect by soil treatment, P: chickweed [8]	Herbicidal effect by soil treatment, I: wild oat [9]	herbicidal effect on J: blackgrass (evaluation grade 0-5) [10]	herbicidal effect on H: barnyard grass (evaluation grade 0-5) [11]	herbicidal effect on I: wild oat (evaluation grade 0-5) [12]	herbicidal effect on Chinese sprangletop (D) [13]	Herbicidal effect by soil treatment, F: southern crabgrass [14]	herbicidal effect on F: southern crabgrass (evaluation grade 0-5) [15]	herbicidal effect on R: persian speedwell (evaluation grade 0-5) [16]	Herbicidal effect by soil treatment, G: green foxtail [17]	herbicidal effect on P: chickweed (evaluation grade 0-5) [18]	Herbicidal effect by soil treatment, M: velvetleaf [19]	Herbicidal effect by soil treatment, J: blackgrass [20]	also measured
Cc1nn(C)c(=O)c(-c2c(-c3ccccc3)sc3c(Cl)cccc23)c1O [4-056]	5 (Herbicidal rate of 90% or more (almost completely withered))	4 (Herbicidal rate of 70% or more and less than 90%)	0 (Herbicidal rate of 5% or less (almost no effect))	0 (Herbicidal rate of 5% or less (almost no effect))	3 (Herbicidal rate of 40% or more and less than 70%)	5 (Herbicidal rate of 90% or more (almost completely withered))	0 (Herbicidal rate of 5% or less (almost no effect))	3 (Herbicidal rate of 40% or more and less than 70%)	0 (Herbicidal rate of 5% or less (almost no effect))	4 (Herbicidal rate of 70% or more and less than 90%)	3 (Herbicidal rate of 40% or more and less than 70%)	4 (Herbicidal rate of 70% or more and less than 90%)	4 (Herbicidal rate of 70% or more and less than 90%)	0 (Herbicidal rate of 5% or less (almost no effect))	2 (Herbicidal rate of 20% or more and less than 40%)	5 (Herbicidal rate of 90% or more (almost completely withered))	0 (Herbicidal rate of 5% or less (almost no effect))	5 (Herbicidal rate of 90% or more (almost completely withered))	0 (Herbicidal rate of 5% or less (almost no effect))	0 (Herbicidal rate of 5% or less (almost no effect))	Herbicidal effect by soil treatment, L: windgrass [21]: 3 (Herbicidal rate of 40% or more and less than 70%); herbicidal effect on G: green foxtail (evaluation grade 0-5) [22]: 1 (Herbicidal rate of 5% or more and less than 20%); Herbicidal effect by soil treatment, N: redroot pigweed [23]: 0 (Herbicidal rate of 5% or less (almost no effect)); herbicidal effect on rice flat sedge (E) [24]: 4 (Herbicidal rate of 70% or more and less than 90%); herbicidal effect on barnyard grass (H) [25]: 4 (Herbicidal rate of 70% or more and less than 90%); herbicidal effect on L: windgrass (evaluation grade 0-5) [26]: 5 (Herbicidal rate of 90% or more (almost completely withered)); Herbicidal effect by soil treatment, O: lambsquarters [27]: 0 (Herbicidal rate of 5% or less (almost no effect))
CCCCOc1cccc(-c2sc3c(Cl)cccc3c2-c2c(O)c(C)nn(C)c2=O)c1 [4-068]	0 (Herbicidal rate of 5% or less (almost no effect))	0 (Herbicidal rate of 5% or less (almost no effect))	0 (Herbicidal rate of 5% or less (almost no effect))	0 (Herbicidal rate of 5% or less (almost no effect))	0 (Herbicidal rate of 5% or less (almost no effect))	2 (Herbicidal rate of 20% or more and less than 40%)	0 (Herbicidal rate of 5% or less (almost no effect))	0 (Herbicidal rate of 5% or less (almost no effect))	0 (Herbicidal rate of 5% or less (almost no effect))	0 (Herbicidal rate of 5% or less (almost no effect))	0 (Herbicidal rate of 5% or less (almost no effect))	0 (Herbicidal rate of 5% or less (almost no effect))	3 (Herbicidal rate of 40% or more and less than 70%)	0 (Herbicidal rate of 5% or less (almost no effect))	0 (Herbicidal rate of 5% or less (almost no effect))	5 (Herbicidal rate of 90% or more (almost completely withered))	0 (Herbicidal rate of 5% or less (almost no effect))	5 (Herbicidal rate of 90% or more (almost completely withered))	0 (Herbicidal rate of 5% or less (almost no effect))	0 (Herbicidal rate of 5% or less (almost no effect))	Herbicidal effect by soil treatment, L: windgrass [21]: 0 (Herbicidal rate of 5% or less (almost no effect)); herbicidal effect on G: green foxtail (evaluation grade 0-5) [22]: 0 (Herbicidal rate of 5% or less (almost no effect)); Herbicidal effect by soil treatment, N: redroot pigweed [23]: 3 (Herbicidal rate of 40% or more and less than 70%); herbicidal effect on rice flat sedge (E) [24]: 3 (Herbicidal rate of 40% or more and less than 70%); herbicidal effect on barnyard grass (H) [25]: 4 (Herbicidal rate of 70% or more and less than 90%); herbicidal effect on L: windgrass (evaluation grade 0-5) [26]: 0 (Herbicidal rate of 5% or less (almost no effect)); Herbicidal effect by soil treatment, O: lambsquarters [27]: 0 (Herbicidal rate of 5% or less (almost no effect))
